From the supplement of paper PMC10307832

What was measured:
Test in all cases: relative viability (nuclei count vs DMSO), 5 days (fraction); higher = more cells survive
AT-7519 + Navitoclax = compound: O=C(NC1CCNCC1)c1n[nH]cc1NC(=O)c1c(Cl)cccc1Cl [AT-7519] + CC1(C)CCC(c2ccc(Cl)cc2)=C(CN2CCN(c3ccc(C(=O)NS(=O)(=O)c4ccc(N[C@H](CCN5CCOCC5)CSc5ccccc5)c(S(=O)(=O)C(F)(F)F)c4)cc3)CC2)C1 [Navitoclax] (partner 0.5 µM)
Outline: (§1)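 Lung cancer cell lines, seeded in 1536-well plates, were treated the following day by pin tool with a single drug or with five library-drug doses (not always all listed) in √10 steps on top of a fixed anchor-drug dose. Cells were fixed and nuclei stained in one step after 5 days, and nuclei were counted. Relative viability is the nuclei count for treated wells divided by that for vehicle wells, reported as medians of duplicate plates.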

AT-7519 + Trametinib = compound: O=C(NC1CCNCC1)c1n[nH]cc1NC(=O)c1c(Cl)cccc1Cl [AT-7519] + CC(=O)Nc1cccc(-n2c(=O)n(C3CC3)c(=O)c3c(Nc4ccc(I)cc4F)n(C)c(=O)c(C)c32)c1 [Trametinib] (partner 0.02 µM)
Outline: as §1

[1] = compound: C1=CC2=C(C=C(C(=C2N=C1)O)N=NC3=CC4=C(C=C3)C=C(C=C4)S(=O)(=O)O)S(=O)(=O)O + O=C(CCCCCCC(=O)Nc1ccccc1)NO [Vorinostat] (partner 1 µM)
Outline: as §1

[2] = compound: C1=CC2=C(C=C(C(=C2N=C1)O)N=NC3=CC4=C(C=C3)C=C(C=C4)S(=O)(=O)O)S(=O)(=O)O + COc1cc2c(Oc3ccc(NC(=O)C4(C(=O)Nc5ccc(F)cc5)CC4)cc3F)ccnc2cc1OCCCN1CCOCC1 [Foretinib] (partner 0.25 µM)
Outline: as §1

Cell Line	relative viability (AT-7519 + Navitoclax; first compound 0.01 µM)	relative viability (AT-7519 + Navitoclax; first compound 0.03162 µM)	relative viability (AT-7519 + Navitoclax; first compound 0.3162 µM)	relative viability (AT-7519 + Navitoclax; first compound 1 µM)	relative viability (AT-7519 + Trametinib; first compound 0.01 µM)	relative viability (AT-7519 + Trametinib; first compound 0.03162 µM)	relative viability (AT-7519 + Trametinib; first compound 0.3162 µM)	relative viability (AT-7519 + Trametinib; first compound 1 µM)	relative viability ([1]; first compound 0.08 µM)	relative viability ([1]; first compound 0.253 µM)	relative viability ([1]; first compound 0.8 µM)	relative viability ([1]; first compound 2.53 µM)	relative viability ([1]; first compound 8 µM)	relative viability ([2]; first compound 0.08 µM)	relative viability ([2]; first compound 0.253 µM)	relative viability ([2]; first compound 0.8 µM)	relative viability ([2]; first compound 2.53 µM)	relative viability ([2]; first compound 8 µM)
NCI-H1993	0.895	0.781	0.984	0.548	0.445	0.496	0.474	0.453	0.844	0.866	0.798	0.783	0.788	0.766	0.78	0.825	0.734	0.643
NCI-H2009	1.19	1.19	1.19	0.96	0.306	0.287	0.25	0.181	0.691	0.742	0.759	0.748	0.53	1.3	1.25	1.18	1.28	0.739
NCI-H2023	1.1	0.938	0.847	0.323	0.541	0.566	0.437	0.131	0.844	0.581	0.621	0.641	0.633	0.769	0.747	0.794	0.997	0.876
NCI-H2085	1.18	1.21	0.967	0.658	0.468	0.585	0.595	0.367	0.85	0.775	0.717	0.775	0.702	1.08	0.886	0.894	0.963	0.634
NCI-H2087	1.03	0.964	1.04	0.0625	0.241	0.187	0.135	0.119	0.69	0.804	0.795	0.702	0.676	1.07	1.14	0.873	1.1	0.921
NCI-H2126	0.893	0.866	0.83	0.823	0.583	0.594	0.554	0.44	0.899	0.75	0.737	0.809	0.851	1.22	1.16	1.22	1.25	1.15
NCI-H2170	0.566	0.497	0.61	0.45	0.994	0.868	0.91	0.708	0.975	0.811	0.862	0.914	0.784	1.05	0.925	0.958	0.799	0.954
NCI-H2228	1.08	0.72	1.04	0.437	0.441	0.426	0.421	0.247	0.966	0.518	0.468	0.652	0.589	0.902	0.826	0.87	0.878	0.923
NCI-H2347	0.741	0.675	0.745	0.59	0.263	0.256	0.274	0.254	0.691	0.621	0.59	0.408	0.729	1.07	1.12	0.766	1.13	0.801
